This note sets out measurements from ChEMBL document CHEMBL3808314, “Discovery and Optimization of Potent, Selective, and in Vivo Efficacious 2-Aryl Benzimidazole BCATm Inhibitors” (ACS Med Chem Lett, 2016).

Calls of active or inactive are those of the source. No cut-off for these calls is given here.

Series [1] can be described thus: Half life of compound in mouse at 1 mg/kg, iv. To be noted: in vivo. The series is classed as ADME, organism-based.
A short description of series [2]: Clearance in mouse blood at 1 mg/kg, iv. The format is ADME, organism-based.
A short description of series [3]: AUC (0 to infinity) in mouse at 5 mg/kg, po. Details: dose 5 mg/kg, route oral, time infinity. The series is classed as ADME, organism-based. To be noted: in vivo.
The target in series [4] is T1, Branched-chain-amino-acid aminotransferase, cytosolic (Homo sapiens, UniProt P54687).
T1 sequence (P54687 whole entry): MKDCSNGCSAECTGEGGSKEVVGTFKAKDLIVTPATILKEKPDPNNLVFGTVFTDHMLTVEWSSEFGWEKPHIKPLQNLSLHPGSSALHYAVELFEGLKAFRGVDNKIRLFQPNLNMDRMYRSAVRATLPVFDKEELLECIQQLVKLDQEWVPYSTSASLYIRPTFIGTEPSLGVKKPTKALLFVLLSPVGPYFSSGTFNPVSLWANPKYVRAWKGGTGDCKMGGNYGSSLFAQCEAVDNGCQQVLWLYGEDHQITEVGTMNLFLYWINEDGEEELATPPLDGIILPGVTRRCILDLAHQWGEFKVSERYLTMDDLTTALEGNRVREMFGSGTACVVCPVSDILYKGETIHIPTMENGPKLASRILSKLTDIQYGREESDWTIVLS
Kind of series: Inhibition of BCATc (unknown origin).

Series [5] in a line: Plasma protein binding in mouse. The series is classed as ADME, cell-free. To be noted: read-out: PPB (converted).
The nature of series [6]: Cmax in mouse at 5 mg/kg, po. The format is ADME, organism-based. Details: dose 5 mg/kg, route oral. The conditions noted are these: in vivo.
The nature of series [7]: Volume of distribution at steady state in mouse at 1 mg/kg, iv. The format is ADME, organism-based. To be noted: in vivo, read-out: Vdss.
Series [8] can be described thus: Oral bioavailability in mouse at 5 mg/kg. The format is ADME, organism-based. To be noted: in vivo.
Series [9] concerns Mus musculus. Put plainly: Increase in isoluecine level in C57Black/6J mouse serum at 300 mg/kg, po administered 5 hrs post fasting state followed by refeeding of amino acid mixture at 30 mins post dose measured after 1 hr by HPLC method. The series is classed as functional, organism-based.
Series [10] relates to Mus musculus. Kind of series: Increase in luecine level in C57Black/6J mouse serum at 300 mg/kg, po administered 5 hrs post fasting state followed by refeeding of amino acid mixture at 30 mins post dose measured after 1 hr by HPLC method. The series is classed as functional, organism-based.
Series [11] has as its system Mus musculus. Put plainly: Increase in valine level in C57Black/6J mouse serum at 300 mg/kg, po administered 5 hrs post fasting state followed by refeeding of amino acid mixture at 30 mins post dose measured after 1 hr by HPLC method. The series is classed as functional, organism-based.
Series [12] relates to Mus musculus. Put plainly: Increase in isoluecine level in po dosed C57Black/6J mouse serum administered 5 hrs post fasting state followed by refeeding of amino acid mixture at 6 hrs post dose measured after 1 hr by HPLC method relative to vehicle control. The format is functional, organism-based.
In series [13] the test system is Mus musculus. Kind of series: Increase in valine level in po dosed C57Black/6J mouse serum administered 5 hrs post fasting state followed by refeeding of amino acid mixture at 6 hrs post dose measured after 1 hr by HPLC method relative to vehicle control. The format is functional, organism-based.
For series [14], the system named is Mus musculus. Kind of series: Increase in luecine level in po dosed C57Black/6J mouse serum administered 5 hrs post fasting state followed by refeeding of amino acid mixture at 6 hrs post dose measured after 1 hr by HPLC method relative to vehicle control. The format is functional, organism-based.

Regarding `CNC(=O)c1ccc2c(c1)nc(-c1ccccc1SC)n2[C@@H]1CCC[C@H](NC(=O)c2ccc(Br)s2)C1` (relative stereo), in series [1], the half-life is 1.4 h. In [2], the clearance is 23 mL/min/kg. Moreover, the AUC(0-inf) in series [3] is 338 ng·h/mL. Further, in series [4], the 50% inhibitory concentration (IC50) is 1260 nM. Also, the fraction unbound in series [5] was 0.005. The same compound displayed a Cmax in series [6] of 129 ng/mL. In addition, the Vd in [7] is 1.3 L/kg. In series [8], the bioavailability was 10%.
Take `CNC(=O)c1ccc2c(c1)nc(-c1ccccn1)n2[C@@H]1CCC[C@H](NC(=O)c2ccc(Br)s2)C1` (relative stereo): the result with Mus musculus [9], with Mus musculus [10] and in the series on Mus musculus [11] was Active. The compound also gave a half-life in series [1] of 3.7 h. The clearance in series [2] is 4 mL/min/kg. Moreover, in series [3], the area under the curve AUC(0-inf) was found to be 5810 ng·h/mL. This compound also gave an IC50 in [4] of 3980 nM. Besides, the fraction unbound in series [5] was 0.029. The Activity entry with Mus musculus [12], with Mus musculus [13] and with Mus musculus [14] was “Dose-dependent effect” in each case. The Cmax in [6] was determined as 1650 ng/mL. In addition, in series [7], the Vd amounted to 0.9 L/kg. This compound displayed a bioavailability in series [8] of 28%.
